This is an account of results in patent US20240174690A1, “ANNULATED 2-AMINO-3-CYANO THIOPHENES AND DERIVATIVES FOR THE TREATMENT OF CANCER” (BOEHRINGER INGELHEIM INTERNATIONAL GMBH, priority 2021, published 2024).

Data set [1] deals with KRAS G12V-dependent Ba/F3 cells. The experiment in a line: Ba/F3 proliferation assay, KRAS G12V.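 Also: proliferation IC50 in KRAS G12V-dependent Ba/F3 cells read by AlamarBlue.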 The format is cell-based. Conditions: Mus musculus, BaF3, 72 h, AlamarBlue. Here is the method:
Plasmids containing KRASG12 mutants (i.e. […], G12C, G12V) are obtained from GeneScript. To generate KRASG12-dependent Ba/F3 models, Ba/F3 cells are transduced with retroviruses containing vectors that harbor KRASG12 isoforms. Platinum-E cells (Cell Biolabs) are used for retrovirus packaging. Retrovirus is added to Ba/F3 cells. To ensure infection, 4 μg/mL polybrene is added and cells are spinfected. […] Cells with an infection efficiency of 10% to 20% are further cultivated and puromycin selection with 1 μg/mL is initiated. As a control, parental Ba/F3 cells are used to show selection status. Selection is considered successful when parental Ba/F3 cells cultures died. To evaluate the transforming potential of KRASG12 mutations, the growth medium is no longer supplemented with IL-3. Ba/F3 cells harboring the empty vector are used as a control. Approximately ten days before conducting the experiments, puromycin is left out.
Compounds are added using an Access Labcyte Workstation with a Labcyte Echo 550 or 555 accoustic dispenser. All treatments are performed in technical duplicates. […] AlamarBlue™ (ThermoFisher), a viability stain, is added and fluorescence measured in the PerkinElmer Envision HTS Multilabel Reader. The raw data are imported into and analyzed with the Boehringer Ingelheim proprietary software MegaLab (curve fitting based on the program PRISM, GraphPad Inc.).
(Resazurin is reduced to fluorescent resorufin, in cell work by metabolically active cells.)

The next data set relates to NCI-H2122 cells. The experiment in a line: NCI-H2122 CTG proliferation assay (120 h) (NSCLC, G12C). The format is cell-based. Conditions: Homo sapiens. Here is the method:
NCI-H2122 CTG Proliferation Assay (120 h) (NSCLC, G12C)
The CTG assay is designed to measure quantitatively the proliferation of NCI-H2122 cells (ATCC CRL-5985), using the CellTiter Glow Assay Kit (Promega G7571). Cells are grown in RPMI medium (ATCC) supplemented with Fetal Calf Serum (Life Technologies, Gibco BRL, Cat. No. 10270-106). On “day 0” 200 NCI-H2122 cells are seeded in 60 μL RPMI ATCC+10% FCS+Penstrep in a black 384-well plate, flat and clear bottom (Greiner, PNr. 781091). Cells are then incubated in the plates at 37° C. in a CO2 incubator overnight. On day 1, compounds (10 mM stock in DMSO) are added with the ECHO acoustic liquid handler system (Beckman Coulter), including DMSO controls. Plates are incubated for 120 h, and cell viability is measured using CellTiter-Glo luminescent cell viability reagent (Promega product code G7570). Viability (stated as percent of control) is defined as relative luminescence units RLU of each well divided by the RLU of cells in DMSO controls. IC50 values are determined from viability measurements by non-linear regression using a four parameter model.

The test system of another data set is SK-CO-1 cells. Nature of the data set: SK-CO-1 CTG proliferation assay (120 h) (CRC, G12V). The format is cell-based. Conditions: Homo sapiens; SK-CO-1 cells (CRC, G12V), CTG 120 h. Here is the method:
SK-CO-1 CTG Proliferation Assay (120 h) (CRC, G12V)
SK-CO-1 cells (ATCC HTB-39) are dispensed into 384-well plates, flat and clear bottom (Greiner, PNr. 781091) at a density of 500 cells per well in 60 μL EMEM (Sigma M5650)+10% Fetal Calf Serum (HyClone, PNr.: SH30084.03) and incubated at 37° C. in a CO2 incubator overnight. The next day, compounds (10 mM stock in DMSO) are added with the ECHO acoustic liquid handler system (Beckman Coulter), including DMSO controls. Plates are incubated for 120 h, and cell viability is measured using CellTiter-Glo luminescent cell viability reagent (Promega product code G7570). Viability (stated as percent of control) is defined as relative luminescence units RLU of each well divided by the RLU of cells in DMSO controls. IC50 values are determined from viability measurements by non-linear regression using a four-parameter model.

Another data set deals with CYP3A4 (Homo sapiens (Human), UniProt P08684). Nature of the data set: Mechanism based inhibition of CYP3A4 assay (MBI 3A4). The format is in vitro ADME. Conditions: hydroxy-midazolam formation after 30 min vs 0 min preincubation, 25 uM, human liver microsomes. The protocol: After preincubation, the incubate is diluted 1:10 and the substrate midazolam is added for the main incubation (15 min). The main incubation is quenched with acetonitrile and the formation of hydroxy-midazolam is quantified via LC/MS-MS. The formation of hydroxy-midazolam from the 30 min preincubation relative to the formation from the 0 min preincubation is used as a readout. Values of less than 100% mean that the substrate midazolam is metabolized to a lower extent upon 30 min preincubation compared to 0 min preincubation. In general low effects upon 30 min preincubation are desired (corresponding to values close to 100%/not different to the values determined with water control).
In general terms: Liver microsomes are a subcellular fraction often used to study metabolism.

Chain of CYP3A4 (P08684 whole entry): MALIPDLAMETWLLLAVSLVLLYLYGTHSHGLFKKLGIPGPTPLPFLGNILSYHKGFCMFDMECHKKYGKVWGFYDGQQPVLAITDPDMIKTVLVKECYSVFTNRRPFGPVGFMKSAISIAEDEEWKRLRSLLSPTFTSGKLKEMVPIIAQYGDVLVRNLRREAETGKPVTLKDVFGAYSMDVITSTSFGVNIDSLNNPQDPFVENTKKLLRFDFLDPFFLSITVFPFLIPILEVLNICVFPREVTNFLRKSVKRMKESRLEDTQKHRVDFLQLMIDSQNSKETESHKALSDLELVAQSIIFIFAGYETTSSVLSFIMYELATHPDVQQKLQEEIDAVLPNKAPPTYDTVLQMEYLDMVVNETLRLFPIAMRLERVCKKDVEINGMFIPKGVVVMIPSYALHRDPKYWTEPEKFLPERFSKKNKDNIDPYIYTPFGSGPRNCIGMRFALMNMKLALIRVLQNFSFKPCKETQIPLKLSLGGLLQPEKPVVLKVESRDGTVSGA

The term IC50 denotes the concentration needed to halve the response being measured. A high value points to weaker potency. For `C[C@H](Oc1cc(N2CCCC2=O)nc(-c2noc3c2CCC[C@@]32CCCc3sc(N)c(C#N)c32)n1)[C@@H]1CCCN1C` [II-73], the figures for the IC50 (in data set [1]; with NCI-H2122 cells; with SK-CO-1 cells) were 17 nM, 1610 nM and 43 nM, respectively. Besides, on CYP3A4, the “MBI 3A4” value turned out to be 52%.
The corresponding values for `COC(=O)c1ccc(-c2cc(O[C@@H](C)[C@@H]3CCCN3C)nc(-c3noc4c3CCC[C@@]43CCCc4sc(N)c(C#N)c43)n2)o1` [II-114] are 7 nM, 680 nM, 64 nM and 85%.
In the case of `C[C@H](Oc1cc(-c2ccn(C3COC3)n2)nc(-c2noc3c2CCC[C@@]32CCCc3sc(N)c(C#N)c32)n1)[C@@H]1C[C@H](F)CN1C` [II-83], the IC50 in data set [1] worked out at 18 nM; with NCI-H2122 cells, 3820 nM; in the data set with SK-CO-1 cells, 447 nM.
Take `Cc1cn(-c2cc(O[C@@H](C)[C@@H]3CCCN3C)nc(-c3noc4c3CCC[C@@]43CCCc4sc(N)c(C#N)c43)n2)nn1` [II-106]: the IC50 in data set [1] worked out at 23 nM; in the data set on NCI-H2122 cells it was 2860 nM; with SK-CO-1 cells, 491 nM. The “MBI 3A4” value on CYP3A4 is 61%.
Take `C[C@H](Oc1cc(N2CCOC3(COC3)C2)nc(-c2noc3c2CCC[C@@]32CCCc3sc(N)c(C#N)c32)n1)[C@@H]1CCCN1C` [II-77]: the IC50 in data set [1] came out at 11 nM; in the data set on NCI-H2122 cells it was 1780 nM; with SK-CO-1 cells, 40 nM.
Regarding `C[C@H](Oc1cc(N2CCc3cccnc32)nc(-c2noc3c2CCC[C@@]32CCCc3sc(N)c(C#N)c32)n1)[C@@H]1CCCN1C` [II-90], the IC50 in data set [1] was found to be 115 nM; in the data set with NCI-H2122 cells, 1860 nM; in the data set with SK-CO-1 cells, 451 nM.
Take `C[C@H]1CN(C)CCCN1c1cc(N2CCN(C)CC2)nc(-c2onc3c2CCC[C@@]32CCCc3sc(N)c(C#N)c32)n1` [I-7]: the results for the IC50 in the data set on NCI-H2122 cells and with SK-CO-1 cells were 3460 nM and 1490 nM, respectively.
As for `C[C@H](Oc1cc(-n2cnc3cccnc32)nc(-c2noc3c2CCC[C@@]32CCCc3sc(N)c(C#N)c32)n1)[C@@H]1CCCN1C` [II-65], the values for the IC50 (in data set [1]; in the data set on NCI-H2122 cells; with SK-CO-1 cells) were 40 nM, 2550 nM and 360 nM, respectively.
On to `C[C@H](Oc1cc(-c2ccn(-c3ccsc3)n2)nc(-c2noc3c2CCC[C@@]32CCCc3sc(N)c(C#N)c32)n1)[C@@H]1CCCN1C` [II-84], for which the results for the IC50 (in data set [1]; with NCI-H2122 cells; with SK-CO-1 cells) were 17 nM, 583 nM and 116 nM, respectively.
The like results for `C[C@H](Oc1cc(N2CCNC[C@@]23CCOC3)nc(-c2noc3c2CCC[C@@]32CCCc3sc(N)c(C#N)c32)n1)[C@@H]1CCCN1C` [II-51] were, in that order, 693 nM, 2560 nM and 772 nM.
The corresponding values for `Cc1nccn1-c1cc(O[C@@H](C)[C@@H]2CCCN2C)nc(-c2noc3c2CCC[C@@]32CCCc3sc(N)c(C#N)c32)n1` [II-79] are 18 nM, 1270 nM and 188 nM.
With `C[C@H](Oc1cc(N2CCN3CCC3C2)nc(-c2onc3c2CCC[C@@]32CCCc3sc(N)c(C#N)c32)n1)[C@@H]1CCCN1C` (some centres unmarked) [I-9], the IC50 was determined as 496 nM in data set [1], 3340 nM with NCI-H2122 cells and 10800 nM in the data set on SK-CO-1 cells.
With `C[C@H](Oc1cc(-n2ccncc2=O)nc(-c2noc3c2CCC[C@@]32CCCc3sc(N)c(C#N)c32)n1)[C@@H]1CCCN1C` [II-116], the IC50 came to 8 nM in data set [1], 1120 nM in the data set with NCI-H2122 cells and 64 nM with SK-CO-1 cells.
The corresponding values for `C[C@H](Oc1cc(-n2ccc(C#N)n2)nc(-c2noc3c2CCC[C@@]32CCCc3sc(N)c(C#N)c32)n1)[C@@H]1CCCN1C` [II-102] are 4 nM, 84 nM and 37 nM.
For the compound `C[C@H](Oc1cc(N2CCCC3(COC3)C2)nc(-c2noc3c2CCC[C@@]32CCCc3sc(N)c(C#N)c32)n1)[C@@H]1CCCN1C` [II-72], the IC50 in data set [1] worked out at 21 nM; in the data set on NCI-H2122 cells it was 2250 nM; in the data set with SK-CO-1 cells, 71 nM.
Consider `C[C@H](Oc1cc(N2CCNCC23CCOC3)nc(-c2onc3c2CCC[C@@]32CCCc3sc(N)c(C#N)c32)n1)[C@@H]1CCCN1C` (some centres unmarked) [I-10], for which the IC50 in data set [1] was found to be 247 nM. For the same compound, the “MBI 3A4” value on CYP3A4 is given as 72%.
Regarding `C[C@H](Oc1cc(-c2cncs2)nc(-c2noc3c2CCC[C@@]32CCCc3sc(N)c(C#N)c32)n1)[C@@H]1CCCN1C` [II-80], the IC50 in data set [1] came out at 10 nM; in the data set with NCI-H2122 cells, 1670 nM; in the data set with SK-CO-1 cells, 148 nM.
Consider `Cc1nc(-c2cc(O[C@@H](C)[C@@H]3CCCN3C)nc(-c3noc4c3CCC[C@@]43CCCc4sc(N)c(C#N)c43)n2)cs1` [II-103], for which the “MBI 3A4” value at CYP3A4 came to 53%.
Turning to `C[C@H](Oc1cc(N2CCNC2=O)nc(-c2noc3c2CCC[C@@]32CCCc3sc(N)c(C#N)c32)n1)[C@@H]1CCCN1C` [II-64], the IC50 was 5 nM in data set [1], 6360 nM with NCI-H2122 cells and 24 nM in the data set with SK-CO-1 cells.
In turn, `C[C@H](Oc1cc(-c2cn(C3CCOCC3)nn2)nc(-c2noc3c2CCC[C@@]32CCCc3sc(N)c(C#N)c32)n1)[C@@H]1CCCN1C` [II-115] yielded an IC50 in data set [1] of 34 nM.
On to `C[C@H](Oc1cc(-c2ccc(N)nc2)nc(-c2noc3c2CCC[C@@]32CCCc3sc(N)c(C#N)c32)n1)[C@@H]1CCCN1C` [II-101], for which the values for the IC50 (in data set [1]; in the data set with NCI-H2122 cells; with SK-CO-1 cells) were 28 nM, 1520 nM and 257 nM, respectively.
The corresponding values for `C[C@H](Oc1cc(-n2cc(Cn3cncn3)nn2)nc(-c2noc3c2CCC[C@@]32CCCc3sc(N)c(C#N)c32)n1)[C@@H]1CCCN1C` [II-124] are 12 nM, 901 nM and 38 nM.
The corresponding values for `C[C@H](Oc1cc(-c2cn(C3COC3)nn2)nc(-c2noc3c2CCC[C@@]32CCCc3sc(N)c(C#N)c32)n1)[C@@H]1CCCN1C` [II-100] are 52 nM, 2140 nM and 257 nM.
`C[C@H](Oc1cc(-n2cccc3cnnc2-3)nc(-c2noc3c2CCC[C@@]32CCCc3sc(N)c(C#N)c32)n1)[C@@H]1CCCN1C` [II-92]: the IC50 worked out at 27 nM in data set [1], 1810 nM in the data set with NCI-H2122 cells and 279 nM in the data set on SK-CO-1 cells.
The compound `C[C@H](Oc1cc(-c2ccn3ncnc3c2)nc(-c2noc3c2CCC[C@@]32CCCc3sc(N)c(C#N)c32)n1)[C@@H]1CCCN1C` [II-104] returned an IC50 in data set [1] of 12 nM. Besides, the “MBI 3A4” value at CYP3A4 came out at 78%.
Take `C[C@H](Oc1cc(-n2ccnc2Cl)nc(-c2noc3c2CCC[C@@]32CCCc3sc(N)c(C#N)c32)n1)[C@@H]1CCCN1C` [II-93]: the IC50 is 45 nM in data set [1], 1560 nM in the data set on NCI-H2122 cells and 140 nM in the data set with SK-CO-1 cells.
The corresponding values for `C[C@H](Oc1cc(N2CCOC3(CC3)C2)nc(-c2noc3c2CCC[C@@]32CCCc3sc(N)c(C#N)c32)n1)[C@@H]1CCCN1C` [II-61] are 38 nM, 2340 nM and 192 nM.
The corresponding values for `C[C@H](Oc1cc(-n2cc(Cn3ccnc3)nn2)nc(-c2noc3c2CCC[C@@]32CCCc3sc(N)c(C#N)c32)n1)[C@@H]1CCCN1C` [II-113] are 33 nM, 661 nM and 64 nM.
